In patent US9732087B2, “Diamino-pyridine, pyrimidine, and pyridazine modulators of the histamine H4 receptor” (JANSSEN PHARMACEUTICA NV, priority 2008, dated 2017) one finds Ki data, which are given here for 43 molecules.

The target in the assay is human H4 receptor (Homo sapiens (Human), UniProt Q9H3N8). The assay is described as follows: Binding assay on recombinant human histamine H4 receptor ([3H]histamine competition, SK-N-MC cell membranes). The note with it: membranes harvested with cell harvester; [3H]histamine 10 nM; average of results; read-out: Cell Harvester Ki. The gist of the method:
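Scintillation counting of filter-bound [3H]histamine after rapid harvesting on 0.5% PEI-treated GF/C filters with ice-cold Tris/EDTA washes. Receptor source: 30,000 g membrane pellets of SK-N-MC cells stably or transiently expressing human H4. Values shown as '>' are the top concentration tested.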

Chain of human H4 receptor (Q9H3N8 whole entry): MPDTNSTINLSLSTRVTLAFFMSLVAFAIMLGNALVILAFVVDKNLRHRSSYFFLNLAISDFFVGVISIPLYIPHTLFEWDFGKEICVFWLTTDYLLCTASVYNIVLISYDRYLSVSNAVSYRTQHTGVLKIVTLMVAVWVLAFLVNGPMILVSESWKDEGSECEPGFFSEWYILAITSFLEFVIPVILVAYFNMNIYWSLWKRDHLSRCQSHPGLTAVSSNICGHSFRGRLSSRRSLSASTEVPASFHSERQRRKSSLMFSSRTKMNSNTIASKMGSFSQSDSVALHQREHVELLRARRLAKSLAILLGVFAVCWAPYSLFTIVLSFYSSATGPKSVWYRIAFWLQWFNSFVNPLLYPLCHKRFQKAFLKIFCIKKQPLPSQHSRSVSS

As to `N[C@@H]1CCN(c2ccnc(NC3CCCCC3)c2)C1` [Example 274, 4-[(3R)-3-Aminopyrrolidin-1-yl]-N-cyclohexylpyridin-2-amine], the Ki (commonly the dissociation constant of the complex between target and ligand, obtained from inhibition or displacement) was found to be 0.0106 µM.

In the case of `CNC1CN(c2ccnc(NCC3CCCC3)c2)C1` [Example 275, N-(Cyclopentylmethyl)-4-[3-(methylamino)azetidin-1-yl]pyridin-2-amine], the inhibitory constant (Ki) was 0.00855 µM.

Consider `N[C@H]1CCN(c2ccnc(NCCc3ccccc3)c2)C1` [Example 276, 4-[(3S)-3-Aminopyrrolidin-1-yl]-N-(2-phenylethyl)pyridin-2-amine], for which the Ki is 1.64 µM.

Turning to `c1cc(N2C[C@H]3CCN[C@H]3C2)cc(NC2CCOCC2)n1` [Example 277, 4-[(3aR,6aR)-Hexahydropyrrolo[3,4-b]pyrrol-5(1H)-yl]-N-(tetrahydro-2H-pyran-4-yl)pyridin-2-amine], the inhibition constant (Ki) was found to be 0.097 µM.

As for `N[C@@H]1CCN(c2ccnc(NCC3CCCC3)c2)C1` [Example 278, 4-[(3R)-3-Aminopyrrolidin-1-yl]-N-(cyclopentylmethyl)pyridin-2-amine], the Ki came to 0.00729 µM.

Turning to `CC(C)(O)CNc1cc(N2CC[C@@H](N)C2)ccn1` [Example 279, 1-({4-[(3R)-3-Aminopyrrolidin-1-yl]pyridin-2-yl}amino)-2-methylpropan-2-ol], the inhibition constant Ki was 0.276 µM.

`CNC1CN(c2ccnc(NC(C)(C)C)c2)C1` [Example 280, N-tert-Butyl-4-[3-(methylamino)azetidin-1-yl]pyridin-2-amine]: the Ki came out at 0.00996 µM.

Take `CNC1CN(c2ccnc(NC3CC3)c2)C1` [Example 281, N-Cyclopropyl-4-[3-(methylamino)azetidin-1-yl]pyridin-2-amine]: the inhibitory constant (Ki) stood at 0.0213 µM.

Consider `CNC1CN(c2ccnc(NCC(C)(C)O)c2)C1` [Example 282, 2-Methyl-1-({4-[3-(methylamino)azetidin-1-yl]pyridin-2-yl}amino)propan-2-ol], for which the inhibition constant (Ki) came to 0.173 µM.

As to `CNC1CN(c2ccnc(NCCCO)c2)C1` [Example 283, 3-({4-[3-(Methylamino)azetidin-1-yl]pyridin-2-yl}amino)propan-1-ol], the inhibition constant (Ki) is 0.162 µM.

Regarding `CNC1CN(c2ccnc(NC3C[C@H]4C[C@@H](C3C)C4(C)C)c2)C1` (stereo partly drawn) [Example 284, 4-[3-(Methylamino)azetidin-1-yl]-N-[(1S,5R)-2,6,6-trimethylbicyclo[3.1.1]hept-3-yl]pyridin-2-amine], the inhibition constant (Ki) was 0.0423 µM.

Take `CNC1CN(c2ccnc(NCc3ccccc3)c2)C1` [Example 285, N-Benzyl-4-[3-(methylamino)azetidin-1-yl]pyridin-2-amine]: the Ki was determined as 0.141 µM.

As to `CNC1CN(c2ccnc(NCCOC)c2)C1` [Example 286, N-(2-Methoxyethyl)-4-[3-(methylamino)azetidin-1-yl]pyridin-2-amine], the Ki was 0.0883 µM.

On to `CC1C(Nc2cc(N3C[C@H]4CCN[C@H]4C3)ccn2)C[C@H]2C[C@@H]1C2(C)C` (stereo partly drawn) [Example 287, 4-[(3aR,6aR)-Hexahydropyrrolo[3,4-b]pyrrol-5(1H)-yl]-N-[(1S,5R)-2,6,6-trimethylbicyclo[3.1.1]hept-3-yl]pyridin-2-amine], for which the inhibition constant (Ki) came out at 0.0989 µM.

For the molecule `CC(C)(C)Nc1cc(N2C[C@H]3CCN[C@H]3C2)ccn1` [Example 288, N-tert-Butyl-4-[(3aR,6aR)-hexahydropyrrolo[3,4-b]pyrrol-5(1H)-yl]pyridin-2-amine], the inhibition constant Ki worked out at 0.0395 µM.

For `COCCNc1cc(N2CC[C@@H](N)C2)ccn1` [Example 289, 4-[(3R)-3-Aminopyrrolidin-1-yl]-N-(2-methoxyethyl)pyridin-2-amine], the Ki came out at 0.41 µM.

On to `CC(C)(O)CNc1cc(N2CCNCC2)ccn1` [Example 290, 2-Methyl-1-[(4-piperazin-1-ylpyridin-2-yl)amino]propan-2-ol], for which the inhibitory constant (Ki) stood at 1.48 µM.

As to `CC1(C)[C@H]2CC[C@H](CNc3cc(N4C[C@H]5CCN[C@H]5C4)ccn3)[C@@H]1C2` [Example 291, N-{[(1S,2S,5S)-6,6-Dimethylbicyclo[3.1.1]hept-2-yl]methyl}-4-[(3aR,6aR)-hexahydropyrrolo[3.4-b]pyrrol-5(1H)-yl]pyridin-2-amine], the Ki was 0.239 µM.

On to `N[C@@H]1CCN(c2ccnc(NC3CCCC3)c2)C1` [Example 292, 4-[(3R)-3-Aminopyrrolidin-1-yl]-N-cyclopentylpyridin-2-amine], for which the Ki is 0.00701 µM.

Take `CC(C)(C)CNc1cc(N2C[C@H]3CCN[C@H]3C2)ccn1` [Example 293, N-(2,2-Dimethylpropyl)-4-[(3aR,6aR)-hexahydropyrrolo[3,4-b]pyrrol-5(1H)-yl]pyridin-2-amine]: the Ki amounted to 0.0609 µM.

On to `CNC1CN(c2ccnc(NCCc3ccccc3)c2)C1` [Example 294, 4-[3-(Methylamino)azetidin-1-yl]-N-(2-phenylethyl)pyridin-2-amine], for which the Ki came to 0.103 µM.

As for `CNC1CN(c2ccnc(NCc3ccc(F)cc3)c2)C1` [Example 295, N-(4-Fluorobenzyl)-4-[3-(methylamino)azeidin-1-yl]pyridin-2-amine], the Ki came out at 0.163 µM.

On to `c1cc(N2C[C@H]3CCN[C@H]3C2)cc(NC23CC4CC(CC(C4)C2)C3)n1` [Example 296, Adamantan-1-yl-[4-(3aR,6aR)-(hexahydro-pyrrolo[3,4-b]pyrrol-5-yl)-pyridin-2-yl]-amine], for which the Ki is 0.0642 µM.

Turning to `CNC1CN(c2ccnc(NCc3ccccn3)c2)C1` [Example 297, 4-[3-(Methylamino)azetidin-1-yl]-N-(pyridin-2-ylmethyl)pyridin-2-amine], the Ki was found to be 1.56 µM.

As for `COCCNc1cc(N2CC[C@@H](N)C2)cnn1` [Example 298, 5-[(3R)-3-Aminopyrrolidin-1-yl]-N-(2-methoxyethyl)pyridazin-3-amine], the Ki is above 10 µM.

For the molecule `CNC1CN(c2cnnc(NCCCC(F)(F)F)c2)C1` [Example 299, 5-[3-(Methylamino)azetidin-1-yl]-N-(4,4,4-trifluorobutyl)pyridazin-3-amine], the Ki was 0.146 µM.

In the case of `CN(CCN)c1cnnc(NCC(C)(C)C)c1` [Example 300, N^5-(2-Aminoethyl)-N^3-(2,2-dimethylpropyl)-N^5-methylpyridazine-3,5-diamine], the Ki came out at 1.86 µM.

As to `CNC1CN(c2cnnc(NC3C[C@H]4C[C@@H](C3C)C4(C)C)c2)C1` (stereo partly drawn) [Example 301, 5-[3-(Methylamino)azetidin-1-yl]-N-[(1S,5R)-2,6,6-trimethylbicyclo[3.1.1]hept-3-yl]pyridazin-3-amine], the Ki worked out at 0.202 µM.

For the molecule `CN(CCN)c1cnnc(NC2CC3CCC2C3)c1` (stereo not shown) [Example 302, N^5-(2-Amino-ethyl)-N^3-bicyclo[2.2.1]hept-2yl-N^5-methylpyridazine-3,5-diamine], the inhibitory constant (Ki) worked out at 0.0981 µM.

As to `CN(CCN)c1cnnc(NCC2CCCC2)c1` [Example 303, N^5-(2-Aminoethyl)-N^3-(cyclopentylmethyl)-N^5-methylpyridazine-3,5-diamine], the Ki stood at 0.417 µM.

As to `OCCCNc1cc(N2C[C@H]3CCN[C@H]3C2)cnn1` [Example 305, 3-({5-[(3aR,6aR)-Hexahydropyrrolo[3,4-b]pyrrol-5(1H)-yl]pyridazin-3-yl}amino)propan-1-ol], the Ki turned out to be 1.06 µM.

As for `CC1(C)[C@H]2CC[C@H](CNc3cc(N4CC(N)C4)cnn3)[C@@H]1C2` [Example 306, 5-(3-Aminoazetidin-1-yl)-N-{[(1S,2S,5S)-6,6-dimethylbicyclo[3.1.1]hept-2-yl]methyl}pyridazin-3-amine], the inhibitory constant (Ki) is 7.22 µM.

With `CC(C)(C)CNc1cc(N2CCCNCC2)cnn1` [Example 307, 5-(1,4-Diazepan-1-y1)-N-(2,2-dimethylpropyl)pyridazin-3-amine], the inhibition constant Ki came out at 0.536 µM.

Turning to `c1nnc(NC2CC2)cc1N1C[C@H]2CCN[C@H]2C1` [Example 309, N-Cyclopropyl-5-[(3aR,6aR)-hexahydropyrrolo[3,4-b]pyrrol-5(1H)-yl]pyridazin-3-amine], the Ki is 1.6 µM.

With `CCCCNc1cc(N2C[C@H]3CCN[C@H]3C2)cnn1` [Example 310, N-Butyl-5-[(3aR,6aR)-hexahydropyrrolo[3,4-b]pyrrol-5(1H)-yl]pyridazin-3-amine], the Ki came to 0.621 µM.

As to `c1cc(N2CCNCC2)cc(NCC2CCCC2)n1` [Example 311, N-(Cyclopentylmethyl)-4-piperazin-1-ylpyridin-2-amine], the Ki turned out to be 0.226 µM.

Take `N[C@@H]1CCN(c2cnnc(NCC3CC4CCC3C4)c2)C1` (stereo partly drawn) [Example 312, 5-[(3R)-3-Aminopyrrolidin-1-yl]-N-(bicyclo[2.2.1]hept-2-ylmethyl)pyridazin-3-amine]: the inhibition constant Ki came out at 0.547 µM.

Consider `N[C@@H]1CCN(c2cnnc(NCCCO)c2)C1` [Example 313, 3-({5-[(3R)-3-Aminopyrrolidin-1-yl]pyridazin-3-yl}amino)propan-1-ol], for which the inhibition constant Ki was above 10 µM.

Consider `OCCCNc1cc(N2CCNCC2)cnn1` [Example 314, 3-[(5-Piperazin-1-ylpyridazin-3-yl)amino]propan-1-ol], for which the inhibitory constant (Ki) was above 10 µM.

As for `c1nnc(NC2CC2)cc1N1CCNCC1` [Example 315, N-Cyclopropyl-5-piperazin-1-ylpyridazin-3-amine], the Ki was 1.92 µM.

Consider `c1nnc(NCC2CCCC2)cc1N1CCCNCC1` [Example 316, N-(Cyclopentylmethyl)-5-(1,4-diazepan-1-yl)pyridazin-3-amine], for which the Ki is 0.275 µM.

In the case of `N[C@H]1CCN(c2cnnc(NCC3CCCC3)c2)C1` [Example 317, 5-[(3S)-3-Aminopyrrolidin-1-yl]-N-(cyclopentylmethyl)pyridazin-3-amine], the inhibition constant Ki amounted to 0.93 µM.

Take `CC(C)CNc1cc(N2C[C@H]3CCN[C@H]3C2)cnn1` [Example 318, 5-[(3aR,6aR)-Hexahydropyrrolo[3,4-b]pyrrol-5(1H)-yl]-N-(2-methylpropyl)pyridazin-3-amine]: the inhibition constant Ki came to 1.24 µM.
